Columns and labels:
Assay type in all cases: in vivo
Monochoria vaginalis [1] = experiment: Test Example 1: herbicidal effect test by soil application in paddy rice; settings: 120 g active ingredient per 10 ares, applied immediately after sowing, flooded pots, 14 days after application; for pest or weed control at 1200 g/ha: Pontederia vaginalis, soil, 336 h, read-out: weed inhibition rate
Method in brief: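 Inhibition rate (%) read 14 days after treatment, duplicate pots. Water-diluted emulsifiable concentrate was applied by dropper at 120 g active ingredient/10 ares right after sowing. Seeds (30 per species, 0–1 cm deep) went into puddled paddy soil kept flooded at about 3 cm in a greenhouse.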

[2] = tested on: Echinochloa crus-galli var. formosensis; experiment: Test Example 2: herbicidal effect test by application during growth period of paddy rice; settings: Echinochloa crus-galli; 120 g per 10 ares; applied seven days after sowing, flooded pots; 14 days after application; read-out: weed inhibition rate
Method in brief: (§1)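 Herbicidal effect was scored 14 days after treatment, in duplicate per concentration. Weeds sown 0–1 cm deep in puddled, fertilized paddy soil under about 3 cm of standing water received a water-diluted emulsifiable concentrate by dropper 7 days post-sowing, at 120 g a.i. per 10 ares.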

Echinochloa crus-galli [3] = experiment: Test Example 4: herbicidal effect test by stem and leaf treatment in upland field; settings: Echinochloa crus-galli; 120 g per 10 ares; sprayed seven days after sowing, upland soil; 14 days after application; read-out: weed inhibition rate
[4] = tested on: Echinochloa crus-galli var. formosensis; experiment: Test Example 5: herbicidal effect test by soil application in paddy rice (low dose); settings: Echinochloa crus-galli, soil, 336 h; 7.5 g per 10 ares; applied immediately after sowing, flooded pots; 14 days after application; read-out: weed inhibition rate
Method in brief: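 Dose of 7.5 g a.i. per 10 ares, applied by dropper as diluted emulsifiable concentrate to flooded (~3 cm) paddy pots immediately after sowing seeds at 0–1 cm. Kept in a glass greenhouse; duplicate pots rated at 14 days post-application.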

[5] = tested on: Echinochloa crus-galli var. formosensis; experiment: Test Example 6: herbicidal effect test by application during growth period of paddy rice (low dose); settings: Echinochloa crus-galli; 7.5 g per 10 ares; applied seven days after sowing, flooded pots; 14 days after application; read-out: weed inhibition rate
Method in brief: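 Emulsifiable concentrate, water-diluted, dropped onto flooded paddy pots 7 days post-sowing at 7.5 g active ingredient/10 a. Greenhouse-grown weeds; percent inhibition scored at day 14 after treatment.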

Echinochloa crus-galli [6] = experiment: Test Example 7: herbicidal effect test by soil application in upland field (low dose); settings: Echinochloa crus-galli, 7.5 g per 10 ares, sprayed one day after sowing, 14 days after application, read-out: weed inhibition rate
Method in brief: (§2)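 Pre-emergence soil treatment: 7.5 g a.i. per 10 a applied as water-diluted emulsifiable concentrate (100 L/10 a) to soil surface one day post-sowing in alluvial loam. Inhibition (%) assessed at 14 days, duplicate pots per concentration.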

Digitaria ciliaris [7] = experiment: Test Example 8: herbicidal effect test by stem and leaf treatment in upland field (low dose); settings: Digitaria ciliaris; 7.5 g per 10 ares; sprayed seven days after sowing, upland soil; 14 days after application; read-out: weed inhibition rate
Echinochloa crus-galli [8] = experiment: as above; settings: Echinochloa crus-galli; 7.5 g per 10 ares; sprayed seven days after sowing, upland soil; 14 days after application; read-out: weed inhibition rate
Digitaria ciliaris [9] = experiment: Test Example 7: herbicidal effect test by soil application in upland field (low dose); settings: Digitaria ciliaris, 7.5 g per 10 ares, sprayed one day after sowing, 14 days after application, read-out: weed inhibition rate
Method in brief: as §2

Monochoria vaginalis [10] = experiment: Test Example 2: herbicidal effect test by application during growth period of paddy rice; settings: Pontederia vaginalis; 120 g per 10 ares; applied seven days after sowing, flooded pots; 14 days after application; read-out: weed inhibition rate
Method in brief: as §1

Scirpus juncoides = experiment: as above; settings: Schoenoplectiella juncoides; 120 g per 10 ares; applied seven days after sowing, flooded pots; 14 days after application; read-out: weed inhibition rate
Method in brief: as §1

Cc1ccccc1CO[C@@H]1C[C@]2(C(C)C)O[C@@]1(C)C[C@@H]2Br [1-16, (1S,2R,4R,5S)-5-bromo-1-methyl-2-[(2-methylphenyl)methoxy]-4-isopropyl-7-oxabicyclo[2.2.1]heptane]
≥ 80%: pest or weed control at 1200 g/ha (Monochoria vaginalis [1]) | inhibition at 1200 g/ha [2] | inhibition at 1200 g/ha (Echinochloa crus-galli [3]) | inhibition at 75 g/ha [4] | inhibition at 75 g/ha [5] | inhibition at 75 g/ha (Echinochloa crus-galli [6]) | inhibition at 75 g/ha (Digitaria ciliaris [7]) | inhibition at 75 g/ha (Echinochloa crus-galli [8])

CCC1C[C@]2(C)O[C@@]1(C(C)C)C[C@H]2OCc1ccccc1C (stereo partly drawn) [1-123, (1R,4S,5R)-2-ethyl-1-isopropyl-4-methyl-5-((2-methylbenzyl)oxy)-7-oxabicyclo[2.2.1]heptane]
≥ 80%: pest or weed control at 1200 g/ha (Monochoria vaginalis [1]) | inhibition at 1200 g/ha [2] | inhibition at 1200 g/ha (Echinochloa crus-galli [3]) | inhibition at 75 g/ha [4] | inhibition at 75 g/ha [5] | inhibition at 75 g/ha (Digitaria ciliaris [9]) | inhibition at 75 g/ha (Digitaria ciliaris [7]) | inhibition at 75 g/ha (Echinochloa crus-galli [8])

CCC1C[C@]2(C)O[C@@]1(C(C)C)C[C@H]2OCc1ccccc1F (stereo partly drawn) [1-126, (1R,4S,5R)-2-ethyl-5-[(2-fluorobenzyl)oxy]-1-isopropyl-4-methyl-7-oxabicyclo[2.2.1]heptane]
≥ 80%: pest or weed control at 1200 g/ha (Monochoria vaginalis [1]) | inhibition at 1200 g/ha [2] | inhibition at 1200 g/ha (Echinochloa crus-galli [3]) | inhibition at 75 g/ha [4] | inhibition at 75 g/ha [5] | inhibition at 75 g/ha (Digitaria ciliaris [9]) | inhibition at 75 g/ha (Echinochloa crus-galli [6]) | inhibition at 75 g/ha (Digitaria ciliaris [7]) | inhibition at 75 g/ha (Echinochloa crus-galli [8])

CO[C@H]1C[C@]2(C)O[C@@]1(C(C)C)C[C@H]2OCc1ccccc1C [1-151, (1 S,2R,4R,5S)-4-isopropyl-5-methoxy-l-methyl-2-((2-methylbenzyl)oxy)-7-oxabicyclo[2.2.1]heptane]
≥ 80%: inhibition at 1200 g/ha [2] | inhibition at 1200 g/ha (Monochoria vaginalis [10]) | inhibition at 1200 g/ha (Scirpus juncoides) | inhibition at 1200 g/ha (Echinochloa crus-galli [3]) | inhibition at 75 g/ha [4] | inhibition at 75 g/ha [5] | inhibition at 75 g/ha (Digitaria ciliaris [9]) | inhibition at 75 g/ha (Echinochloa crus-galli [6]) | inhibition at 75 g/ha (Digitaria ciliaris [7]) | inhibition at 75 g/ha (Echinochloa crus-galli [8])

CCOC(C)O[C@H]1C[C@]2(C)O[C@@]1(C(C)C)C[C@H]2OCc1ccccc1C (stereo partly drawn) [1-208, (1R,2S,4S,5R)-2-(1-ethoxyethoxy)-1-isopropyl-4-methyl-5-((2-methylbenzyl)oxy)-7-oxabicyclo[2.2.1]heptane]
≥ 80%: pest or weed control at 1200 g/ha (Monochoria vaginalis [1]) | inhibition at 1200 g/ha [2] | inhibition at 1200 g/ha (Scirpus juncoides) | inhibition at 1200 g/ha (Echinochloa crus-galli [3]) | inhibition at 75 g/ha [4] | inhibition at 75 g/ha [5] | inhibition at 75 g/ha (Digitaria ciliaris [9]) | inhibition at 75 g/ha (Echinochloa crus-galli [6]) | inhibition at 75 g/ha (Echinochloa crus-galli [8])

CCOC(C)O[C@H]1C[C@]2(C)O[C@@]1(C(C)C)C[C@H]2OCc1c(F)cccc1F (stereo partly drawn) [1-223, (1S,2R,4R,5S)-2-((2,6-difluorobenzyl)oxy)-5-(1-ethoxyethoxy)-4-isopropyl-1-methyl-7-oxabicyclo[2.2.1]heptane]
≥ 80%: pest or weed control at 1200 g/ha (Monochoria vaginalis [1]) | inhibition at 1200 g/ha [2] | inhibition at 1200 g/ha (Scirpus juncoides) | inhibition at 1200 g/ha (Echinochloa crus-galli [3]) | inhibition at 75 g/ha [4] | inhibition at 75 g/ha [5] | inhibition at 75 g/ha (Digitaria ciliaris [9]) | inhibition at 75 g/ha (Echinochloa crus-galli [6]) | inhibition at 75 g/ha (Echinochloa crus-galli [8])

CC(C)[C@]12C[C@@H](OCc3ccccc3F)[C@](C)(C[C@@H]1OS(=O)(=O)C(F)(F)F)O2 [1-525, (1R,2S,4S,5R)-5-((2-fluorobenzyl)oxy)-1-isopropyl-4-methyl-7-oxabicyclo[2.2.1]heptan-2-yl trifluoromethanesulfonate]
≥ 80%: pest or weed control at 1200 g/ha (Monochoria vaginalis [1]) | inhibition at 1200 g/ha [2] | inhibition at 1200 g/ha (Echinochloa crus-galli [3]) | inhibition at 75 g/ha [4] | inhibition at 75 g/ha [5] | inhibition at 75 g/ha (Digitaria ciliaris [9]) | inhibition at 75 g/ha (Digitaria ciliaris [7]) | inhibition at 75 g/ha (Echinochloa crus-galli [8])

CCCO[C@H]1C[C@]2(C)O[C@@]1(C(C)C)C[C@H]2OCc1ccccc1F [1-1604, (1S,2R,4R,SS)-2-[(2-fluorophenyl)methoxy]-1-methyl-4-isopropyl-5-propoxy-7-oxabicyclo[2.2.1]heptane]
≥ 80%: weed inhibition rate (Monochoria vaginalis [1]) | inhibition at 1200 g/ha [2] | inhibition at 1200 g/ha (Scirpus juncoides) | inhibition at 1200 g/ha (Echinochloa crus-galli [3]) | inhibition at 75 g/ha [4] | inhibition at 75 g/ha [5] | inhibition at 75 g/ha (Digitaria ciliaris [9]) | inhibition at 75 g/ha (Echinochloa crus-galli [6]) | inhibition at 75 g/ha (Digitaria ciliaris [7]) | inhibition at 75 g/ha (Echinochloa crus-galli [8])

CC(C)[C@]12C[C@@H](OCc3cccc(F)c3F)[C@](C)(CC1=O)O2 [2-14, (1R,4S,5R)-5-((2,3-difluorobenzyl)oxy)-1-isopropyl-4-methyl-7-oxabicyclo[2.2.1]heptan-2-one]
≥ 80%: pest or weed control at 1200 g/ha (Monochoria vaginalis [1]) | inhibition at 1200 g/ha [2] | inhibition at 1200 g/ha (Echinochloa crus-galli [3]) | inhibition at 75 g/ha [4] | inhibition at 75 g/ha [5] | inhibition at 75 g/ha (Digitaria ciliaris [9]) | inhibition at 75 g/ha (Echinochloa crus-galli [6]) | inhibition at 75 g/ha (Digitaria ciliaris [7]) | inhibition at 75 g/ha (Echinochloa crus-galli [8])

CC(C)[C@]12C[C@@H](OCc3c(Cl)cccc3Cl)[C@](C)(CC1=O)O2 [2-26, (1R,4S,5R)-5-((2,6-dichlorobenzyl)oxy)-1-isopropyl-4-methyl-7-oxabicyclo[2.2.1]heptan-2-one]
≥ 80%: pest or weed control at 1200 g/ha (Monochoria vaginalis [1]) | inhibition at 1200 g/ha [2] | inhibition at 1200 g/ha (Echinochloa crus-galli [3]) | inhibition at 75 g/ha [4] | inhibition at 75 g/ha [5] | inhibition at 75 g/ha (Digitaria ciliaris [9]) | inhibition at 75 g/ha (Echinochloa crus-galli [6]) | inhibition at 75 g/ha (Digitaria ciliaris [7])

Cc1cccc(C)c1CO[C@@H]1C[C@@]2(C(C)C)C=C[C@]1(C)O2 [3-3, (1R,4S,5R)-5-[(2,6-dimethylphenyl)methoxy]-4-methyl-1-isopropyl-7-oxabicyclo[2.2.1]hept-2-ene]
≥ 80%: pest or weed control at 1200 g/ha (Monochoria vaginalis [1]) | inhibition at 1200 g/ha [2] | inhibition at 1200 g/ha (Scirpus juncoides) | inhibition at 1200 g/ha (Echinochloa crus-galli [3]) | inhibition at 75 g/ha [4] | inhibition at 75 g/ha [5]

CC(C)[C@]12C=C[C@](C)(O1)[C@H](OCc1c(F)cccc1F)C2 [3-7, (1R,4S,5R)-5-[(2,6-difluorophenyl)methoxy]-4-methyl-1-isopropyl-7-oxabicyclo[2.2.1]hept-2-ene]
≥ 80%: pest or weed control at 1200 g/ha (Monochoria vaginalis [1]) | inhibition at 1200 g/ha [2] | inhibition at 1200 g/ha (Scirpus juncoides) | inhibition at 1200 g/ha (Echinochloa crus-galli [3]) | inhibition at 75 g/ha [4] | inhibition at 75 g/ha [5] | inhibition at 75 g/ha (Digitaria ciliaris [9]) | inhibition at 75 g/ha (Echinochloa crus-galli [6]) | inhibition at 75 g/ha (Digitaria ciliaris [7]) | inhibition at 75 g/ha (Echinochloa crus-galli [8])

Reference: patent publication EP4707280A1, “1,4-CINEOLE DERIVATIVE AND INTERMEDIATE THEREOF, HERBICIDE CONTAINING SAID DERIVATIVE AS ACTIVE INGREDIENT, METHOD FOR USING HERBICIDE, AND METHOD FOR PREPARING AGROCHEMICAL COMPOSITION” (HOKKO CHEMICAL INDUSTRY CO., LTD., priority 2023, dated 2024)
